Test results taken from US12044651B2, “Sensor device and methods” (SCENTIAN BIO LIMITED, priority 2016, dated 2024).
Blank lines part the entries; values can stand above or below the molecule they belong to.

What was measured:
Type in all cases: binding
OR35a = target: T1, OR35a (Drosophila melanogaster, UniProt Q9V3Q2); test: EIS sensor, Or35a liposomes on gold electrode (Example 1); settings: Or35a liposomes, EIS
T1 sequence (Q9V3Q2 1-409): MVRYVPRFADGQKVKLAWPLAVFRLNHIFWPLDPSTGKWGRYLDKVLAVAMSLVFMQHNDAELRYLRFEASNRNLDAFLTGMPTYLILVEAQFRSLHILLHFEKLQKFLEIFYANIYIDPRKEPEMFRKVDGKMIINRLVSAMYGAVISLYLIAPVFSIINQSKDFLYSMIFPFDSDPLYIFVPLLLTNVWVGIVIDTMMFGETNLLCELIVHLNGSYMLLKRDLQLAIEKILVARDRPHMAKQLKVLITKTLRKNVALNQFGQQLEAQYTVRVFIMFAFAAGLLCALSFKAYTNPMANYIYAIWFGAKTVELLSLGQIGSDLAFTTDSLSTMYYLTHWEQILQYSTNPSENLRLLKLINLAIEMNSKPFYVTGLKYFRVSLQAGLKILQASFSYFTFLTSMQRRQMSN
Procedure: (§1) Liposomes were prepared using a phospholipid solution produced by evaporating solutions containing: phosphatidylethanolamine (PE), phosphatidylserine (PS), phosphatidylcholine (PC), and cholesterol (CH) at a molar ratio of 5:3:3:1 in a small glass tube under a stream of N2 gas, then desiccating under vacuum for 1 h. […] To promote the formation of liposomes, 10 freeze/thaw steps were performed by transferring the tube from liquid nitrogen to a 40° C. water bath. Liposomes were then sized by passing the lipid solution 11 times through a 100-nm polycarbonate membrane using an Avestin LiposoFAST extruder unit (Avestin, Germany). Glycerol was added at 10% of the final volume and aliquots at 10 mg/mL were snap frozen in liquid nitrogen and stored at -80° C. Prior to their use, liposomes were defrosted on ice and then destabilized by incubating with 0.2% CHAPS for 15 min at room temperature. Then 200 μg of purified odorant receptor^14 was added to 1 mg of liposomes and rotated at 10 rpm for 1 h at room temperature. […] The Bio-Beads were removed after each incubation period. The OR integrated liposomes were pelleted by centrifugation at 100,000 g for 1 h, and were resuspended in 500 μL of rehydration buffer. Integration of OrXs into liposomes was assessed by density gradient ultracentrifugation (DGU) using Accudenz (Accurate Chemical & Scientific Corporation, USA). […] The sample was then centrifuged at 100,000 g for 4 h at 4° C. Liposomes will float to the top of the gradient after Accudenz DGU due to their low density. 1.3 Electrode Cleaning Gold disk (2 mm) electrodes were cleaned with polishing with Alumina paste for 2 minutes, ultra-sonicated in pure ethanol and then Milli-Q water for 5 minutes each. […] Charge transfer resistance (Rct) of electrodes were calculated by fitting obtained data to a Randles' equivalent circuit [Rs+CPE/(Rct+W)] comprising of a solution resistance (Rs) in series with a constant phase element (CPE) and in parallel with charge transfer resistance (Rct) and Warburg diffusion element. […]

Or22a = target: T2, Or22a (Drosophila melanogaster, UniProt P81909); test: QCM-D sensor with Or22a liposomes (Example 6); settings: 1.6 to 200 μM
T2 sequence (P81909 1-397): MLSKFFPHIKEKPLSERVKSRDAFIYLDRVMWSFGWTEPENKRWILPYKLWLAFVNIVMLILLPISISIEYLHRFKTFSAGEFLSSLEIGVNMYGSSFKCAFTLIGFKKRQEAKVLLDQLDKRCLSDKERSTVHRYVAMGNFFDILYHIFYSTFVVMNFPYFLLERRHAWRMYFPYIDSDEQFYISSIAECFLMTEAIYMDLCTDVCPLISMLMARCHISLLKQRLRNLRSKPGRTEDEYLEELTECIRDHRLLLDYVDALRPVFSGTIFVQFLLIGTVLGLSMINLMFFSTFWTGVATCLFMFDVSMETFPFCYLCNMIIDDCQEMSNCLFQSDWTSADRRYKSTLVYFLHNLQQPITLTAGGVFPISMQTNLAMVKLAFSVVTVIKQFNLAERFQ
Procedure: Gold (100 nm) sensor crystals were sonicated in ethanol and milli-Q water for 15 minutes each respectively. A 5:1:1 volume ratio of milli-Q water, ammonia (25%), and hydrogen peroxide (30%) was heated to 75° C. for 5 minutes and the sonicated crystals were placed in the heated solution for 5 minutes. Then the crystals were removed from the solution and rinsed with milli-Q water before drying with nitrogen gas. The clean gold crystals were thiol-functionalized by exposing them to 2 mM ethanolic solution of MHA overnight followed by washing with ethanol solution in order to remove excess or loosely bound molecules.

Or10a = target: T3, Or10a (Drosophila melanogaster, UniProt Q9VYZ1); test: EIS sensor, Or10a liposomes on gold electrode (Example 1); settings: Or10a liposomes, EIS
T3 sequence (Q9VYZ1 1-406): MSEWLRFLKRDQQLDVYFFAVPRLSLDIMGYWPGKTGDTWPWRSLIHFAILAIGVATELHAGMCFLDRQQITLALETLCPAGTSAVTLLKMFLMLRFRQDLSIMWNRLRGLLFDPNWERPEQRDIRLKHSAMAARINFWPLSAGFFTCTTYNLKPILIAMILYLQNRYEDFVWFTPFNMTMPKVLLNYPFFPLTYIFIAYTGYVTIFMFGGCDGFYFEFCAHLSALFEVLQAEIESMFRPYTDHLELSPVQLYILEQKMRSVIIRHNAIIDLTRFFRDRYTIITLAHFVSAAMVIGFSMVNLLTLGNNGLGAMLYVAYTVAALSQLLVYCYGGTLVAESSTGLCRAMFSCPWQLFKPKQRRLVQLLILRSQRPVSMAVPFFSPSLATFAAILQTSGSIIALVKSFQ
Procedure: as §1

Compound: CCC/C=C/C=O [E2-hexenal]
EC50 (OR35a): ~10 nM | Sensitivity limit (lowest detectable concentration) (OR35a; signal/noise >3): 36 pM

Compound: CCCCCC(=O)OC [methyl hexanoate]
change in oscillation frequency (Or22a): increase in the frequency

EC50 (Or10a): ~1 nM | Sensitivity limit (lowest detectable concentration) (Or10a; signal/noise >3): 330 pM
Compound: COC(=O)c1ccccc1O [methyl salicylate]
